Experimental data published in publication PMC10394516, “The pharmacokinetic profile of brensocatib and its effect on pharmacodynamic biomarkers including NE, PR3, and CatG in various rodent species” (Frontiers in Pharmacology, 2023).

Legend:
PR3 [1] = tested on: PR3; parameters: method as in Cipolla et al., 2023; settings: Phase 2 trial in NCFBE (WILLOW); ref Cipolla et al., 2023; cited from earlier work
CatG [2] = test: Bone marrow CatG activity after repeated dosing, Wistar rats; format: in vivo; settings: for Reduction of CatG activity vs vehicle / Change From Vehicle Control (%) CatG: 7 days
Protocol: (§1) Briefly, animals were weighed and randomized into different treatment groups. In total, three different dosing levels of brensocatib were tested in each species and strain; each QD dosing level was equivalent to 1.5-times the matching daily BID dose. For BID dosing, the second daily dose was administered 8-h post the morning dose. C57BL/6 mice were dosed either BID or QD for 7 consecutive days at 0/0, 0.5/0.75, 2/3, and 20/30 mg/kg/day (BID/QD). BALB/c mice were dosed for 7 consecutive days at 0/0, 0.2/0.3, 2/3, and 20/30 mg/kg/day (BID/QD). SD rats were dosed for 9 consecutive days at 0/0, 0.2/0.3, 2/3, and 20/30 mg/kg/day (BID/QD). Wistar rats were dosed for 7 consecutive days at 0/0, 0.2/0.3, 2/3, and 20/30 mg/kg/day (BID/QD).
(§2) At the completion of the study, animals were sacrificed 16–24 h post their final dose. The hind limb bones (femurs and tibias) were collected at necropsy for bone marrow analysis of NSP activities by kinetic enzymatic assays ([Basso et al., 2022]). See section Quantification of Bone Marrow NSP Activities for details.
(§3) For the mice, each animal had the femurs and tibias of both hind limbs harvested. For the rat, the femur and tibia from a single hind limb per animal was harvested. Bones were kept on wet ice until processing for bone marrow collection. In brief, bone cutters were used to cut the epiphysis (knobby ends) off the long bones to expose the bone marrow filled cavity. Each bone cavity was then flushed with 5 mL/bone (mouse) or 10 mL/bone (rat) of ice-cold RPMI media through a […] and collected in a 50-mL conical tube. Cells were spun down at 2,500 × g at 4°C for 5 min and the supernatant was aspirated. After which, bone marrow cells were lysed with 1X red blood cell (RBC) lysis buffer (Abcam, ab204733) to eliminate contaminating RBCs and washed with PBS to remove any residual RBC lysis buffer. The resulting white blood cells (WBC) were subsequently lysed with 1% (v/v) Triton X-100 in PBS. Lysates were added to 96-well plates and stored at −80°C until NSP analyses.
(§4) Bone marrow lysates prepared as described above were diluted and plated onto 96-well assay plates to quantify NSP activities as described previously ([Basso et al., 2022]). Briefly, peptide substrates for NE (N-Methoxysuccinyl-Ala-Ala-Pro-Val-7-amido-4-methylcoumarin; Sigma; St. Louis, MO; Excitation/Emission at 350/450 nm), PR3 ((7-Methoxycoumarin-4-yl)acetyl-lysyl-(picolinoyl)-Tyr-Asp-Ala-Lys-Gly-Asp-N-3-(2-4-dinitrophenyl)-2-3-diaminopropyonyl-NH2); GenScript; Piscataway, NJ; Excitation/Emission at 340/430 nm), and CatG (N-Succinyl-Ala-Ala-Pro-Phe p nitroanilide; Sigma; Absorbance at 405 nm) were added at a final assay concentration of 100 μM, 40 μM, and 200 μM, respectively, and either fluorescence or absorbance was quantified using a Synergy microplate reader (BioTek; Winooski, VT). The specific NSP activity in each sample was calculated as the total activity minus the activity in the presence of a specific NSP inhibitor (if used), including elastase inhibitor (Abcam) for NE, sivelestat (Abcam) for PR3, and cathepsin G inhibitor I (Cayman Chemical; Ann Arbor, MI) for CatG. NSP concentrations were interpolated based on their activities relative to the standard curves created using active human NE protein (Sigma), active human PR3 protein (Sigma), and active human CatG protein (Sigma), respectively. Due to unavailability of commercial mouse and/or rat NE, PR3, and CatG proteins, the corresponding human proteins were used instead since their catalytic ability is considered to be conserved across species. A portion of each cell lysate sample was retained for protein quantification using a Pierce™ BCA Protein Assay Kit (Thermo Fisher). The NSP activities were normalized for the cell lysate protein concentrations.
(§5) The Pierce™ BCA Protein Assay Kit was used to measure the total protein of the samples after lysis to allow for subsequent normalization. […]

PR3 [3] = test: Bone marrow PR3 activity after repeated dosing, C57BL/6 mice; format: in vivo; settings: for Reduction of PR3 activity vs vehicle / Change From Vehicle Control (%) PR3: 7 days
Protocol: as §1, §2, §3, §4, §5

CatG [4] = test: Bone marrow CatG activity after repeated dosing, Sprague Dawley rats; format: in vivo; settings: for Reduction of CatG activity vs vehicle / Change From Vehicle Control (%) CatG: 9 days
Protocol: as §1, §2, §3, §4, §5

PR3 [5] = test: Bone marrow PR3 activity after repeated dosing, BALB/c mice; format: in vivo; settings: for Reduction of PR3 activity vs vehicle / Change From Vehicle Control (%) PR3: 7 days
Protocol: as §1, §2, §3, §4, §5

CatG [6] = test: Bone marrow CatG activity after repeated dosing, C57BL/6 mice; format: in vivo; settings: for Reduction of CatG activity vs vehicle / Change From Vehicle Control (%) CatG: 7 days
Protocol: as §1, §2, §3, §4, §5

[7] = BID highest dose (20 mg/kg/day)
[8] = highest dose level 20/30 (BID/QD) mg/kg/day
[9] = oral BID 0.5 mg/kg/day, 16 h post final dose
[10] = oral BID 2 mg/kg/day, 16 h post final dose
[11] = oral BID 20 mg/kg/day, 16 h post final dose
[12] = oral QD 0.75 mg/kg/day, 24 h post final dose
[13] = oral QD 3 mg/kg/day, 24 h post final dose
[14] = oral QD 30 mg/kg/day, 24 h post final dose

SMILES: Cn1c(=O)oc2ccc(-c3ccc(C[C@@H](C#N)NC(=O)[C@@H]4CNCCCO4)cc3)cc21 [brensocatib]
- sputum PR3 activity (PR3 [1]): Dose-dependent reductions
- Reduction of CatG activity vs vehicle (CatG [2]; [7]): 32%
- Reduction of CatG activity vs vehicle (CatG [2]; QD highest dose (30 mg/kg/day)): 41%
- Combined BID and QD percent reduction, CatG (CatG [2]; [8]): 37%
- Change From Vehicle Control (%) CatG (CatG [2]; oral BID 0.2 mg/kg/day): −14% (p = 0.7146)
- Change From Vehicle Control (%) CatG (CatG [2]; oral BID 2 mg/kg/day): −16% (p = 0.6392)
- Change From Vehicle Control (%) CatG (CatG [2]; oral BID 20 mg/kg/day): −32% (p = 0.1106)
- Change From Vehicle Control (%) CatG (CatG [2]; oral QD 0.3 mg/kg/day): +5% (p = 0.9843)
- Change From Vehicle Control (%) CatG (CatG [2]; oral QD 3 mg/kg/day): −35% (p = 0.0605)
- Change From Vehicle Control (%) CatG (CatG [2]; oral QD 30 mg/kg/day): −41% (p = 0.0202)
- Reduction of PR3 activity vs vehicle (PR3 [3]; [7]): 80%
- Reduction of PR3 activity vs vehicle (PR3 [3]; QD highest dose (30 mg/kg/day)): 65%
- Combined BID and QD percent reduction, PR3 (PR3 [3]; [8]): 71%
- Change From Vehicle Control (%) PR3 (PR3 [3]; [9]): 9% (p = 0.8059)
- Change From Vehicle Control (%) PR3 (PR3 [3]; [10]): −44% (p = 0.0041)
- Change From Vehicle Control (%) PR3 (PR3 [3]; [11]): −80% (p < 0.0001)
- Change From Vehicle Control (%) PR3 (PR3 [3]; [12]): +2% (p = 0.9977)
- Change From Vehicle Control (%) PR3 (PR3 [3]; [13]): −46% (p = 0.0008)
- Change From Vehicle Control (%) PR3 (PR3 [3]; [14]): −65% (p < 0.0001)
- Reduction of CatG activity vs vehicle (CatG [4]; [7]): 37%
- Reduction of CatG activity vs vehicle (CatG [4]; QD highest dose (30 mg/kg/day)): 43%
- Combined BID and QD percent reduction, CatG (CatG [4]; [8]): 40%
- Change From Vehicle Control (%) CatG (CatG [4]; oral BID 0.2 mg/kg/day): +4% (p = 0.9857)
- Change From Vehicle Control (%) CatG (CatG [4]; oral BID 2 mg/kg/day): +2% (p = 0.9972)
- Change From Vehicle Control (%) CatG (CatG [4]; oral BID 20 mg/kg/day): −37% (p = 0.0420)
- Change From Vehicle Control (%) CatG (CatG [4]; oral QD 0.3 mg/kg/day): −9% (p = 0.9235)
- Change From Vehicle Control (%) CatG (CatG [4]; oral QD 3 mg/kg/day): −13% (p = 0.8203)
- Change From Vehicle Control (%) CatG (CatG [4]; oral QD 30 mg/kg/day): −43% (p = 0.0348)
- Reduction of PR3 activity vs vehicle (PR3 [5]; [7]): 70%
- Reduction of PR3 activity vs vehicle (PR3 [5]; QD highest dose (30 mg/kg/day)): 52%
- Combined BID and QD percentage reduction, PR3 (PR3 [5]; [8]): 61%
- Change From Vehicle Control (%) PR3 (PR3 [5]; oral BID 0.2 mg/kg/day, 16 h post final dose): +13% (p = 0.6435)
- Change From Vehicle Control (%) PR3 (PR3 [5]; [10]): −26% (p = 0.1243)
- Change From Vehicle Control (%) PR3 (PR3 [5]; [11]): −70% (p < 0.0001)
- Change From Vehicle Control (%) PR3 (PR3 [5]; oral QD 0.3 mg/kg/day, 24 h post final dose): −7% (p = 0.9149)
- Change From Vehicle Control (%) PR3 (PR3 [5]; [13]): −13% (p = 0.6769)
- Change From Vehicle Control (%) PR3 (PR3 [5]; [14]): −52% (p = 0.0010)
- Reduction of CatG activity vs vehicle (CatG [6]; [7]): 94%
- Reduction of CatG activity vs vehicle (CatG [6]; QD highest dose (30 mg/kg/day)): 87%
- Combined BID and QD percent reduction, CatG (CatG [6]; [8]): 90%
- Change From Vehicle Control (%) CatG (CatG [6]; [9]): −16% (p = 0.1964)
- Change From Vehicle Control (%) CatG (CatG [6]; [10]): −71% (p < 0.0001)
- Change From Vehicle Control (%) CatG (CatG [6]; [11]): −94% (p < 0.0001)
- Change From Vehicle Control (%) CatG (CatG [6]; [12]): −1% (p = 0.9999)
- Change From Vehicle Control (%) CatG (CatG [6]; [13]): −64% (p < 0.0001)
- Change From Vehicle Control (%) CatG (CatG [6]; [14]): −87% (p < 0.0001)
